The test relates to BDF1 mice, P388 leukemia ip, median survival T/C. The test can be described thus: NCI In Vivo Anticancer Drug Screen. Data for tumor model P388 Leukemia (intraperitoneal) in B6D2F1 (BDF1) mice. The following applies: endpoint: median survival time, higher = longer survival. The essentials: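 Steps: implant the tumour, treat one group with compound and another with vehicle, record survival, then divide treated by control.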

The mark [1] stands for this setting: dose: 12.5 mg/kg/injection, schedule: Q01DX009 (ip), vehicle: saline with Tween-80.
Setting [2] is: dose: 25.0 mg/kg/injection, schedule: Q01DX009 (ip), vehicle: saline with Tween-80.
The mark [3] stands for this setting: dose: 50.0 mg/kg/injection, schedule: Q01DX009 (ip), vehicle: saline with Tween-80.
Where [4] appears, read: dose: 100.0 mg/kg/injection, schedule: Q01DX009 (ip), vehicle: saline with Tween-80.
[5] abbreviates: dose: 100.0 mg/kg/injection, schedule: Q04DX003 (ip), vehicle: saline with Tween-80.
Setting [6] is: dose: 200.0 mg/kg/injection, schedule: Q04DX003 (ip), vehicle: saline with Tween-80.
Where [7] appears, read: dose: 400.0 mg/kg/injection, schedule: Q04DX003 (ip), vehicle: saline with Tween-80.
The mark [8] stands for this setting: dose: 100.0 mg/kg/injection, schedule: Q01DX009 (ip), vehicle: Klucel (hydroxypropylcellulose) (HPC).
Setting [9] is: dose: 12.5 mg/kg/injection, schedule: Q01DX009 (ip), vehicle: saline.
Setting [10] is: dose: 25.0 mg/kg/injection, schedule: Q01DX009 (ip), vehicle: saline.
Where [11] appears, read: dose: 200.0 mg/kg/injection, schedule: Q04DX003 (ip), vehicle: saline.

Values joined by “and” are separate entries in the source; they are usually repeats but may differ in a detail not shown here. Equal entries are not always repeated. Inconclusive results and toxic doses are left out.

Turning to `CCCNC(=S)NNC(=O)c1ccncc1`, the T/C is 98 % of control (dose: 6.25 mg/kg/injection, schedule: Q01DX009 (ip), vehicle: saline with Tween-80); 97 % of control under setting [1]; 100 % of control under setting [2]; 90 % of control under setting [3]; 100 % of control under setting [4].
Take `C=CCc1ccccc1C=O`: the T/C is, setting by setting: under setting [5], 97 % of control; under setting [6], 95 % of control; under setting [7], 97 % of control.
`CC(C)C1=CC2=CC(=O)C3C(C)(C)CCCC3(C)C2=C(O)C1=O` (stereo not given): the T/C was 105 % of control (dose: 2.0 mg/kg/injection, schedule: Q01DX010 (ip), vehicle: carboxymethylcellulose (CMC)); 105 % of control (dose: 5.0 mg/kg/injection, schedule: Q01DX010 (ip), vehicle: carboxymethylcellulose (CMC)); 115 % of control (dose: 5.0 mg/kg/injection, schedule: Q01DX010 (ip), vehicle: other); 100 % of control (dose: 10.0 mg/kg/injection, schedule: Q01DX010 (ip), vehicle: carboxymethylcellulose (CMC)); 115 % of control (dose: 10.0 mg/kg/injection, schedule: Q01DX010 (ip), vehicle: other); 120 % of control (dose: 20.0 mg/kg/injection, schedule: Q01DX010 (ip), vehicle: carboxymethylcellulose (CMC)).
`CC(C)(C)c1ccc(Sc2cccc3c2C(=O)c2c(Cl)cccc2C3=O)cc1`: the T/C was 90 % of control under setting [5], 88 % of control under setting [6] and 92 % of control under setting [7].
For `C/C(N=Nc1ccc([N+](=O)[O-])cc1)=N\Nc1ccccc1`, the T/C under setting [8] is 94 % of control; the T/C (dose: 100.0 mg/kg/injection, schedule: Q04DX003 (ip), vehicle: Klucel (hydroxypropylcellulose) (HPC)) was 91 % of control; the T/C (dose: 200.0 mg/kg/injection, schedule: Q01DX009 (ip), vehicle: Klucel (hydroxypropylcellulose) (HPC)) is 100 % of control; the T/C (dose: 200.0 mg/kg/injection, schedule: Q04DX003 (ip), vehicle: Klucel (hydroxypropylcellulose) (HPC)) is 87 % of control; the T/C (dose: 400.0 mg/kg/injection, schedule: Q01DX009 (ip), vehicle: Klucel (hydroxypropylcellulose) (HPC)) was 100 % of control; the T/C (dose: 400.0 mg/kg/injection, schedule: Q04DX003 (ip), vehicle: Klucel (hydroxypropylcellulose) (HPC)) was 104 % of control.
Turning to `CC(=O)[O][Hg][c]1c(C)c(C)cc(C)c1C`, the T/C under setting [9] is 108 % of control and the T/C under setting [10] is 121 % of control.
As for `CC1CC(C)(O)C2C3(C)CCCC2(COC3=O)C12CCC1(CCOC1=O)O2` (stereo not given), the T/C is, setting by setting: (dose: 2.5 mg/kg/injection, schedule: Q01DX009 (ip), vehicle: Klucel (hydroxypropylcellulose) (HPC)) 88 % of control; (dose: 5.0 mg/kg/injection, schedule: Q01DX009 (ip), vehicle: Klucel (hydroxypropylcellulose) (HPC)) 106 % of control; (dose: 10.0 mg/kg/injection, schedule: Q01DX009 (ip), vehicle: Klucel (hydroxypropylcellulose) (HPC)) 95 % of control.
With `[Co].[N-]=C=S.[N-]=C=S.[N-]=C=S.[NH2-].[NH2-].[NH2-]`, the T/C reads like this: (dose: 12.5 mg/kg/injection, schedule: Q01DX005 (ip), vehicle: saline with Tween-80) 107 % of control; (dose: 25.0 mg/kg/injection, schedule: Q01DX005 (ip), vehicle: saline with Tween-80) 110 % of control; (dose: 50.0 mg/kg/injection, schedule: Q01DX005 (ip), vehicle: saline with Tween-80) 117 % of control; (dose: 100.0 mg/kg/injection, schedule: Q01DX001 (ip), vehicle: suspension in saline) 98 % of control; (dose: 200.0 mg/kg/injection, schedule: Q01DX001 (ip), vehicle: suspension in saline) 120 % of control; (dose: 400.0 mg/kg/injection, schedule: Q01DX001 (ip), vehicle: suspension in saline) 98 % of control.
As for `C=CCN(CC=C)CCNc1nc(C(Cl)(Cl)Cl)nc2ccc(Cl)cc12`, the T/C runs as follows: under setting [5], 100 % of control; under setting [6], 112 % of control; under setting [7], 116 % of control.
As to `NCCO/C=C/C(N)C(=O)O` (stereo not given), the T/C is, setting by setting: (dose: 4.0 mg/kg/injection, schedule: Q01DX009 (ip), vehicle: saline) 99 % of control; (dose: 6.0 mg/kg/injection, schedule: Q01DX009 (ip), vehicle: saline) 100 % of control; (dose: 9.0 mg/kg/injection, schedule: Q01DX009 (ip), vehicle: saline) 93 % of control; under setting [9], 104 % of control; under setting [10], 107 % of control.
Take `CCO/C=C1\SC(=S)N(c2ccc(C(=O)O)cc2)C1=O`: the T/C reads like this: (dose: 11.0 mg/kg/injection, schedule: Q01DX009 (ip), vehicle: saline) 104 % of control; under setting [10], 122 % of control; (dose: 37.5 mg/kg/injection, schedule: Q01DX009 (ip), vehicle: saline) 100 % of control; under setting [4], 116 % of control.
For the compound `CCC[CH2][Sn]1([CH2]CCC)[S]CC[N]1S(=O)(=O)c1ccc(C)cc1`, the T/C (dose: 3.0 mg/kg/injection, schedule: Q01DX009 (ip), vehicle: gum acacia) was 119 % of control.
In the case of `CCCCCCCCCCCCN1CCCC(C)C1` (stereo not given), the T/C runs as follows: under setting [1], 114 % of control; under setting [2], 109 % of control; under setting [3], 98 % of control and 120 % of control.
Consider `CN(C)CC(=O)c1ccc(O)c(O)c1`, for which the T/C (dose: 300.0 mg/kg/injection, schedule: Q01DX010 (ip), vehicle: saline) is 150 % of control.
Regarding `O=C(CCCCC(=O)Nc1ccc(C(=O)Nc2cc(C3=NCCN3)cc(C3=NCCN3)c2)cc1)Nc1ccc(C(=O)Nc2cc(C3=NCCN3)cc(C3=NCCN3)c2)cc1`, the T/C runs as follows: (dose: 66.0 mg/kg/injection, schedule: Q01DX009 (ip), vehicle: saline) 150 % of control; (dose: 150.0 mg/kg/injection, schedule: Q01DX009 (ip), vehicle: saline) 150 % of control; (dose: 150.0 mg/kg/injection, schedule: Q04DX003 (ip), vehicle: saline) 154 % of control; under setting [11], 150 % of control.
As to `O=C(O)CCI`, the T/C reads like this: (dose: 25.0 mg/kg/injection, schedule: Q04DX003 (ip), vehicle: saline with Tween-80) 113 % of control; (dose: 50.0 mg/kg/injection, schedule: Q01DX009 (ip), vehicle: saline) 100 % of control; (dose: 50.0 mg/kg/injection, schedule: Q04DX003 (ip), vehicle: saline with Tween-80) 100 % of control; (dose: 100.0 mg/kg/injection, schedule: Q01DX001 (ip), vehicle: saline) 104 % of control; (dose: 100.0 mg/kg/injection, schedule: Q01DX009 (ip), vehicle: saline) 100 % of control; under setting [5], 92 % of control and 95 % of control. The T/C is 104 % of control (dose: 200.0 mg/kg/injection, schedule: Q01DX001 (ip), vehicle: saline) and 91 % of control (dose: 200.0 mg/kg/injection, schedule: Q01DX009 (ip), vehicle: saline).
For the compound `c1ccc2c(c1)C1c3ccccc3C2C2COCC12` (stereo not given), the T/C reads like this: (dose: 25.0 mg/kg/injection, schedule: Q01DX009 (ip), vehicle: Klucel (hydroxypropylcellulose) (HPC)) 105 % of control; (dose: 50.0 mg/kg/injection, schedule: Q01DX009 (ip), vehicle: Klucel (hydroxypropylcellulose) (HPC)) 110 % of control; (dose: 75.0 mg/kg/injection, schedule: Q04DX003 (ip), vehicle: Klucel (hydroxypropylcellulose) (HPC)) 108 % of control; under setting [8], 100 % of control; (dose: 150.0 mg/kg/injection, schedule: Q04DX003 (ip), vehicle: Klucel (hydroxypropylcellulose) (HPC)) 104 % of control; (dose: 300.0 mg/kg/injection, schedule: Q04DX003 (ip), vehicle: Klucel (hydroxypropylcellulose) (HPC)) 86 % of control.
As to `CCCCCCCCC(C(O)c1ccccc1)C(O)(C(F)(F)F)C(F)(F)F` (stereo not given), the T/C (dose: 100.0 mg/kg/injection, schedule: Q04DX003 (ip), vehicle: other) is 90 % of control; the T/C (dose: 200.0 mg/kg/injection, schedule: Q04DX003 (ip), vehicle: other) is 95 % of control; the T/C (dose: 400.0 mg/kg/injection, schedule: Q04DX003 (ip), vehicle: other) is 115 % of control.
As to `c1ccc2c(c1)Sc1cnccc1N2CC1CO1` (stereo not given), the T/C runs as follows: (dose: 100.0 mg/kg/injection, schedule: Q04DX003 (ip), vehicle: saline) 104 % of control; under setting [11], 90 % of control; (dose: 400.0 mg/kg/injection, schedule: Q04DX003 (ip), vehicle: saline) 95 % of control.

These data come from PubChem BioAssay AID328 (DTP/NCI, 2004).
